Laboratory results as given in patent US12692253B2, “Antimicrobial compounds and methods” (Curza Global, LLC, priority 2019, dated 2026).
Like-named read-outs stand apart in the source and are kept apart here.

Tests used:
[1] = target: Rabbit Reticulocyte Lysate (eukaryotic protein synthesis); assay: Rabbit reticulocyte lysate luciferase assay (inhibition of eukaryotic protein synthesis); assay type: biochemical; conditions: read-out: Rabbit reticulocyte IC50 (μM/% inhib.)
Summary of the method: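 Percent inhibition calculated against water-only controls from luminescence; background set by lysate lacking RNA. Compounds, 8-point 2-fold titration, incubated 90 minutes at 30° C with nuclease-treated rabbit reticulocyte lysate programmed with luciferase control RNA plus complete amino acids.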

E. faecalis (Ef) = assay: Broth microdilution minimum inhibitory concentration (MIC), CLSI; assay type: cell-based; conditions: for MIC: Enterococcus faecalis, read-out: Ef + bicarb MIC
Summary of the method: (§1)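 Modified CLSI method: CAMHB (± bicarbonate 6.25/25 mM or 0-50% human serum), 8-point two-fold series, triplicates, 5×10^4 CFU/well.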

P. aeruginosa (Pa) = assay: as above; assay type: cell-based; conditions: for MIC: Pseudomonas aeruginosa, read-out: Pa MIC + bicarb
Summary of the method: as §1

S. aureus (Sa) = assay: as above; assay type: cell-based; conditions: for MIC: Staphylococcus aureus, read-out: Sa + bicarb MIC
Summary of the method: as §1

E. coli (Ec) = assay: as above; assay type: cell-based; conditions: for MIC: Escherichia coli, read-out: E. coli + bicarb MIC
Summary of the method: as §1

A. baumannn (Ab) = assay: as above; assay type: cell-based; conditions: for MIC: read-out: Ab + bicarb MIC
Summary of the method: as §1

[2] = system: E. coli S30 extract (bacterial protein synthesis); assay: E. coli S30 extract coupled transcription-translation luciferase assay (inhibition of bacterial protein synthesis); assay type: biochemical; conditions: read-out: S30 IC50 (μM/% inhib.)
Summary of the method: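 Luciferase luminescence quantified inhibition of protein synthesis relative to water controls, with no-DNA reactions giving background. Compounds in 2-fold serial dilution (8 levels) were incubated 1 hour at 37 °C with E. coli S30 extract, amino acids and pBESTluc plasmid, then chilled to stop.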

[3] = class by IC50 or % inhibition @ 1 μM
[4] = growth medium supplemented with sodium bicarbonate
[5] = growth medium with sodium bicarbonate
[6] = A. baumannn, growth medium with sodium bicarbonate

Compound	IC50 [1, 3] [µM]	MIC (E. faecalis (Ef); [4]) [µg/mL]	MIC (P. aeruginosa (Pa); [4]) [µg/mL]	MIC (S. aureus (Sa); [4]) [µg/mL]	MIC (E. coli (Ec); [4]) [µg/mL]	MIC (A. baumannn (Ab); Acinetobacter baumannii) [µg/mL]	IC50 [2, 3] [µM]	IC50 ([1]; % inhibition @ 1 μM) [µM]	MIC (E. faecalis (Ef); [5]) [µg/mL]	MIC (P. aeruginosa (Pa); [5]) [µg/mL]	MIC (S. aureus (Sa); [5]) [µg/mL]	MIC (E. coli (Ec); [5]) [µg/mL]	MIC (A. baumannn (Ab); [6]) [µg/mL]	IC50 ([2]; % inhibition @ 1 μM) [µM]	Ef + bicarb MIC (E. faecalis (Ef); [5])	Pa MIC + bicarb (P. aeruginosa (Pa); [5])	Sa + bicarb MIC (S. aureus (Sa); [5])	E. coli + bicarb MIC (E. coli (Ec); [5])	Ab + bicarb MIC (A. baumannn (Ab); [6])
CC(C)(N)C(=O)N1CCN(C(=O)Nc2ccn(-c3ccc(C(N)C(=O)N4C[C@@H]5[C@@H](N)[C@@H]5C4)cc3)c(=O)n2)CC1 (some centres unmarked) [Compound 105]	≥ 1	> 32	> 32	> 32	> 32	> 32	≥ 1	–	–	–	–	–	–	–	–	–	–	–	–
CCC(Cc1ccc(-n2ccc(NC(=O)N3CCN(C(=O)C(C)(C)N)CC3)nc2=O)cc1)N1C[C@@H]2[C@@H](CN)[C@@H]2C1 (some centres unmarked) [Compound 135]	≥ 1	< 8	< 8	< 8	< 8	< 8	< 0.5	–	–	–	–	–	–	–	–	–	–	–	–
C[C@@](N)(CO)C(=O)N1CCN(C(=O)Nc2ccn(-c3ccc(CCN4CCC5CC5(N)C4)cc3)c(=O)n2)CC1 (some centres unmarked) [Compound 99]	≥ 1	8 to 32	> 32	< 8	< 8	> 32	0.5 to 1	–	–	–	–	–	–	–	–	–	–	–	–
CC(C)(N)C(=O)N1CCN(C(=O)Nc2ccn(-c3ccc(CNC45CCC(N)(CC4)C5)cc3)c(=O)n2)CC1 [Compound 168]	–	–	–	–	–	–	–	≥ 1	< 8	> 32	< 8	< 8	> 32	< 0.5	–	–	–	–	–
CCC(Cc1ccc(-n2ccc(NC(=O)N3CCN(C(=O)C(C)(C)N)CC3)nc2=O)cc1)N1CC2CCC(N)CC2C1 (centres unmarked) [Compound 218]	–	–	–	–	–	–	–	≥ 1	–	> 32	< 8	< 8	> 32	< 0.5	+++ (An MIC value (μg/mL) that is less than 8 μg/mL)	–	–	–	–
CCC(Cc1ccc(-n2ccc(NC(=O)N3CCN(C(=O)C(C)(C)N)CC3)nc2=O)cc1)N1CC2CCCC(N)C2C1 (centres unmarked) [Compound 219]	–	–	–	–	–	–	–	≥ 1	< 8	> 32	< 8	< 8	> 32	< 0.5	–	–	–	–	–
CC(C)(N)C(=O)N1CCN(C(=O)Nc2ccn(-c3ccc(CN4C[C@@H]5[C@@H](N)[C@@H]5[C@H]4CO)cc3)c(=O)n2)CC1 [Compound 66]	≥ 1	> 32	> 32	8 to 32	< 8	> 32	0.5 to 1	–	–	–	–	–	–	–	–	–	–	–	–
NC[C@@H]1[C@H]2CN(CCc3ccc(-n4ccc(NC(=O)N5CC6(CC(N)C6)C5)nc4=O)cc3)C[C@@H]12 [Compound 149]	≥ 1	> 32	> 32	8 to 32	8 to 32	> 32	≥ 1	–	–	–	–	–	–	–	–	–	–	–	–
CC(C)(N)C(=O)N1CCN(C(=O)Nc2ccn(-c3ccc(CN4CCC5(CC4)CC(N)C5)cc3)c(=O)n2)CC1 [Compound 33]	≥ 1	< 8	8 to 32	< 8	< 8	8 to 32	< 0.5	–	–	–	–	–	–	–	–	–	–	–	–
CC(Cc1ccc(-n2ccc(NC(=O)N3CCN(C(=O)C(C)(C)CN)CC3)nc2=O)cc1)N1C[C@@H]2[C@@H](CN)[C@@H]2C1 (some centres unmarked) [Compound 233]	–	–	–	–	–	–	–	≥ 1	8 to 32	> 32	< 8	< 8	> 32	≥ 1	–	–	–	–	–
CC(C)(N)CC1CCN(C(=O)Nc2ccn(-c3ccc(CN4C[C@@H]5[C@@H](N)[C@@H]5C4)cc3)c(=O)n2)CC1 [Compound 48]	≥ 1	8 to 32	> 32	< 8	< 8	> 32	0.5 to 1	–	–	–	–	–	–	–	–	–	–	–	–
CC(C)(N)C(=O)N1CCN(C(=O)Nc2ccn(-c3cccc(CCN4C[C@@H]5[C@@H](CN)[C@@H]5C4)c3)c(=O)n2)CC1 [Compound 143]	≥ 1	8 to 32	> 32	8 to 32	< 8	> 32	0.5 to 1	–	–	–	–	–	–	–	–	–	–	–	–
CC(Cc1ccc(-n2ccc(NC(=O)N3CCN(C(=O)C(C)(C)N)CC3)nc2=O)cc1)[N+]1(C)C[C@@H]2[C@@H](CN)[C@@H]2C1 (some centres unmarked) [Compound 220]	–	–	–	–	–	–	–	≥ 1	8 to 32	> 32	< 8	< 8	> 32	< 0.5	–	–	–	–	–
CCC(Cc1ccc(-n2ccc(NC(=O)N3CCN(C(=O)[C@@](C)(N)CO)CC3)nc2=O)cc1)N1C[C@@H]2[C@@H](CN)[C@@H]2C1 (some centres unmarked) [Compound 151]	≥ 1	< 8	8 to 32	< 8	< 8	8 to 32	< 0.5	–	–	–	–	–	–	–	–	–	–	–	–
CC(C)(N)C(=O)N1CCN(C(=O)Nc2ccn(-c3ccc(CN4CC5(CCC5N)C4)cc3)c(=O)n2)CC1 (centres unmarked) [Compound 60]	≥ 1	> 32	> 32	< 8	< 8	> 32	< 0.5	–	–	–	–	–	–	–	–	–	–	–	–
C[C@H](Cc1ccc(-n2ccc(NC(=O)N3CCN(C(=O)C(C)(C)N)CC3)nc2=O)cc1)N1C[C@@H]2[C@@H](CN)[C@@H]2C1 [Compound 140]	≥ 1	< 8	8 to 32	< 8	< 8	8 to 32	< 0.5	–	–	–	–	–	–	–	–	–	–	–	–
CCC(Cc1ccc(-n2ccc(NC(=O)N3CCN(C(=O)C(C)(C)N)CC3)nc2=O)cc1)N1CC2CCC(N)CC2C1 (centres unmarked) [Compound 245]	–	–	–	–	–	–	–	≥ 1	–	–	–	–	–	0.5 to 1	+ (An MIC (μg/mL) value that is 32 μg/mL or greater)	+ (An MIC (μg/mL) value that is 32 μg/mL or greater)	++ (An MIC value (μg/mL) that is 8 μg/mL or greater and less than 32 μg/mL)	+++ (An MIC value (μg/mL) that is less than 8 μg/mL)	+ (An MIC (μg/mL) value that is 32 μg/mL or greater)
CN(Cc1ccc(-n2ccc(NC(=O)N3CCN(C(=O)C(C)(C)N)CC3)nc2=O)cc1)C12CCC(N)(CC1)C2 [Compound 164]	–	–	–	–	–	–	–	≥ 1	< 8	> 32	< 8	< 8	8 to 32	< 0.5	–	–	–	–	–
Cc1cc(-n2ccc(NC(=O)N3CCN(C(=O)[C@@](C)(N)CO)CC3)nc2=O)ccc1CCN1CC2CC2(CN)C1 (some centres unmarked) [Compound 128]	≥ 1	8 to 32	> 32	< 8	< 8	> 32	< 0.5	–	–	–	–	–	–	–	–	–	–	–	–
CC(C)[C@H](N)C(=O)N1CCN(C(=O)Nc2ccn(-c3ccc(CC(C)N4C[C@@H]5[C@@H](CN)[C@@H]5C4)cc3)c(=O)n2)CC1 (some centres unmarked) [Compound 223]	–	–	–	–	–	–	–	≥ 1	< 8	> 32	< 8	< 8	> 32	< 0.5	–	–	–	–	–
